Type in all cases: cell-based, human
The subject of assay [1] is UACC-647 cells. Nature of the assay: Migration and invasion towards 10% FBS (xCELLigence RTCA), UACC-647. Conditions: for effect of pretreatment on anti-migratory activity of MNF (100 nM) / migratory rate: UACC-647, H-89 20 μM; for effect of pretreatment on anti-migratory activity of MNF (100 nM): ICI 118,551 50 nM; for migratory rate: MNF 100 nM, Forskolin 10 μM. On the procedure:
(§1) Assays were performed using xCELLigence RTCA Analyzer. Serum-starved cells were allowed to migrate or invade towards 10% FBS via bare microporous PET membrane or Matrigel-coated membrane, respectively.
(§2) Migration and Invasion Assay.
(§3) Migration and invasion of UACC-647, M93-047 and UACC-903 towards 10% FBS were monitored using xCELLigence system
(§4) Serum-starved UACC-647, M93-047 and UACC-903 cells were plated onto unmodified or Matrigel-coated CIM-Plates. The cells were treated with (R,R′)-MNF or vehicle (DMSO, 0.1%). Migration and invasion towards 10% FBS was monitored using xCELLigence RTCA station. Times of half-maximal infiltration of the cells towards serum were calculated and plotted against (R,R′)-MNF concentration.
ICI 118,551 and H-89 pretreatment blocked inhibitory activity of (R,R′)-MNF on UACC-647, while Forskolin mimicked (R,R′)-MNF. UACC-647 were serum-starved, pretreated with ICI 118,551, Forskolin, H-89 or DMSO and plated onto unmodified CIM-Plates. Migration towards 10% FBS was monitored using xCELLigence RTCA station. […] Forskolin (activator of adenylyl cyclase, 10 μM) mimicked MNF (100 nM). […] Pretreatment with H-89 blocked anti-migratory activity of MNF (100 nM).

Assay [2] deals with phosphorylated ERK in UACC-647 cells. Nature of the assay: Phosphorylated ERK levels, UACC-647. As to the method:
(§5) Levels of ERK1/2 and its phosphorylated forms were determined using PathScan ELISA kits according to manufacturer's protocol (Perkin Elmer Alphascreen Surefire ERK1/2 assay kit, cat no. TGRES500).
(§6) UACC-647, M93-047 or UACC-903 cells were serum starved for 3 hours and subjected to compound of interest or vehicle for 15 minutes.

In assay [3] the test system is M93-047 cells. Description: Migration and invasion towards 10% FBS (xCELLigence RTCA), M93-047. As to the method:
as §1, §2, §3, §4

In assay [4] the test system is phosphorylated ERK in M93-047 cells. Nature of the assay: Phosphorylated ERK levels, M93-047. Conditions: M93-047, serum starved 3 hours, 15 minutes. On the procedure: as §5, §6
Assay [5] has as its system phosphorylated MEK in UACC-647 cells. Nature of the assay: Phosphorylated MEK levels, UACC-647. As to the method: (R,R′)-MNF decreased basal phosphorylation levels of ERK and MEK. UACC-647, M93-047 or UACC-903 cells were serum starved for 3 hours and subjected to compound of interest or vehicle for 15 minutes. […] Cell pretreatment with 50 nM ICI 118,551 abolished MNF-evoked drop in phospho ERK levels in UACC647.

The test system of assay [6] is M93-047 cells. Description: Proliferation assay (xCELLigence RTCA), M93-047. Conditions: M93-047, E-Plates, measured every 15 minutes. As to the method: (§7) UACC-647, M93-047 and UACC-903 cells were seeded out on E-Plates and allowed to settle. Cells were stimulated with MNF. Cellular proliferation and adherence was measured every 15 min using xCELLigence RTCA station.
(§8) UACC-647, M93-047 and UACC-903 cells were seeded out on E-Plates and allowed to settle. Cells were stimulated with MNF. Cellular proliferation and adherence was measured every 15 minutes using xCELLigence RTCA station. Serum-starved UACC647 cells were incubated with range of (R,R′)-MNF concentrations for 24 hours and the levels of [3H]thymidine incorporation were measured.

In assay [7] the test system is UACC647 cells. Nature of the assay: [3H]-thymidine incorporation assay. Conditions: serum-starved UACC647 cells, 24 hours. As to the method: [^3H]-Thymidine Incorporation Assay.
Cells were seeded in 12-well plates at approximately 50,000 cells/well and incubated at 37° C. After 24 hours, the wells were rinsed with PBS and replaced with serum-free medium containing the appropriate concentration of the test compounds. After another 24-hour incubation at 37° C., 1 μCi of [^3H]-thymidine was added to each well and incubated at 37° C. for 16 hours. [^3H]-Thymidine incorporation into DNA was monitored after the cells were washed twice with PBS and then lysed in 600 μl of 0.1 N NaOH for 30 minutes with shaking. The lysate was then mixed with 3 mL of liquid scintillation cocktail (Beckman Coulter, Inc., Brea, Calif.), and radioactivity was measured by liquid scintillation counting using Beckman Coulter LS6000IC Scintillation Counter. Data are shown as CPM incorporated compared to the control cells.
as §8
A general note: Uptake of a labelled nucleoside into DNA is a usual measure of proliferation.

In assay [8] the test system is melanoma cells (UACC-647, M93-047 and UACC-903). Nature of the assay: [35S] methionine labeling, de novo protein synthesis. Conditions: 10 fM, 10 pM, 10 nM for 15 minutes, then [35S]Met/Cys labeling 30 minutes. On the procedure: [^35S] Methionine Labeling.
Serum starved cells were incubated in serum-free medium without methionine and cysteine and treated with (R,R′)-MNF. Then, [^35S]Met/Cys labeling was carried out. Cell lysates were resolved by SDS-polyacrylamide gel electrophoresis and transferred onto PVD membrane, and autoradiography was performed. The membrane was probed with anti-β-actin antibody to confirm equal protein loading.
Serum starved (3 hours) UACC-647, M93-047 and UACC-903 cells were washed with PBS and incubated in serum-free medium without methionine and cysteine. Then, cells were treated with (R,R′)-MNF (10 fM, 10 pM, 10 nM) or incubated with vehicle (DMSO, 0.1%) for 15 minutes followed by [35S]Met/Cys labeling for 30 minutes. Cell lysates were resolved by SDS-PAGE and transferred onto PVD membrane, and autoradio-graphy was performed. The membrane was probed with anti-β-actin antibody to confirm equal protein loading. Amounts of de novo synthesized proteins were evaluated by means of volume densitometry. Obtained values were normalized to β-actin levels.

Assay [9] concerns UACC-647 cells. Description: Scratch wound healing assay, UACC-647. Conditions: UACC-647, 100 pM to 10 μM, 24 hours. As to the method:
(§9) A scratch wound was made with a cell scraper. Cells were pictured using Axiovert 200 microscope and AxioCam HRc camera. (Carl Zeiss)
(§10) UACC-647, M93-047 and UACC-903 cells were cultured until confluency. Uniform scratch wounds were made on the monolayer cultures using cell scraper and the cells were challenge with (R,R′)-MNF (100 pM to 10 μM) or vehicle (DMSO, 0.1%). Images were captured at the onset of the treatment and after 24 hours.

Assay [10] relates to UACC647 cells. Nature of the assay: Proliferation assay (xCELLigence RTCA), UACC647. Conditions: UACC647, E-Plates, measured every 15 minutes. On the procedure: as §7, §8
In assay [11] the test system is eukaryotic elongation factor 2 (eEF2) in M93-047 cells. Description: eEF2 phosphorylation (Western blot), M93-047. Conditions: M93-047, serum starved 3 hours, 1 fM to 10 μM, 15 minutes. On the procedure: (§11) Cells were lysed with RIPA buffer containing EGTA and EDTA (Boston BioProducts, Ashland, Mass.). The lysis buffer was mixed with a protease inhibitor cocktail (Sigma-Aldrich). Protein concentrations were measured using the bicinchoninic acid reagent (Thermo-Pierce Biotechnology, Inc., Rockford, Ill.). Proteins (20 μg/well) were separated on 4-12% precast gels (Invitrogen, Carlsbad, Calif.) using SDS-polyacrylamide gel electrophoresis under reducing conditions and were electrophoretically transferred onto polyvinylidene fluoride membrane (Invitrogen). Western blots were performed according to standard methods. The visualization of immunoreactive bands was performed using the ECL Plus Western Blotting Detection System (GE Healthcare, NJ) and their quantification was done by volume densitometry using Image J software and normalization to β-actin. […]
(§12) UACC-647, M93-047 and UACC-903 cells were serum starved for 3 hours and subjected to concentration gradient of (R,R′)-MNF (1 fM to 10 μM) or vehicle (DMSO, 0.1%) for 15 minutes. […] Proteins of interest were detected using (phospho)specific antibodies of rabbit origin and visualized by chemiluminescence. […] Levels of total and phosphorylated form of eEF2 were quantified in (R,R′)-MNF-treated cells by means of volume densitometry.

In assay [12] the test system is UACC-903 cells. Description: Proliferation assay (xCELLigence RTCA), UACC-903. Conditions: UACC-903 cells (lacking EGFR). As to the method: as §7, §8
The test system of assay [13] is M93-047 cells. Nature of the assay: Scratch wound healing assay, M93-047. Conditions: M93-047, 100 pM to 10 μM, 24 hours. As to the method: as §9, §10
Assay [14] concerns eukaryotic elongation factor 2 (eEF2) in UACC-647 cells. Nature of the assay: eEF2 phosphorylation (Western blot), UACC-647. Conditions: UACC-647, serum starved 3 hours, 1 fM to 10 μM, 15 minutes. On the procedure: as §11, §12
For orientation: A western blot detects proteins with antibodies after separation by electrophoresis.

`Cc1ccc(OCC(O)C(C)NC(C)C)c2c1CCC2` (stereo not shown) [ICI 118,551, 3-(isopropylamino)-1-[(7-methyl-4-indanyl)oxy]butan-2-ol, reference compound]: the “effect of pretreatment on anti-migratory activity of MNF (100 nM)” value in [1] is given as “completely abolished”. In addition, the “effect of pretreatment on MNF-evoked drop in phospho ERK levels” value in assay [2] (UACC647, pretreatment 50 nM) is recorded as “abolished”.
As to `O=S(=O)(NCCNC/C=C/c1ccc(Br)cc1)c1cccc2cnccc12` [H-89, reference compound], in assay [1], the “effect of pretreatment on anti-migratory activity of MNF (100 nM)” value is “blocked” and the migratory rate result is given as “increased migratory rate”.
For `COc1ccc(C[C@@H](C)NC[C@H](O)c2cc(O)cc(O)c2)c2ccccc12` [(R,R′)-MNF, (R,R′)-4′-methoxy-1-naphthylfenoterol], the “invasion towards 10% FBS” value was “inhibit” in assay [3] (M93-047, Matrigel-coated CIM-Plates) and “inhibit” in [1] (UACC-647, Matrigel-coated CIM-Plates). Besides, the “migration towards 10% FBS” value is reported as “inhibit migration” in assay [3] (M93-047, unmodified CIM-Plates) and “inhibit migration” in [1] (UACC-647, unmodified CIM-Plates). Besides, the “nadir of U-shaped dose-response curve of phosphorylated ERK levels” value came to 1 nM in [4] and 1 nM in [2] (UACC 647, serum starved 3 hours, 15 minutes). Further, the migratory rate result in assay [1] was “decreased migratory rate”. The “levels of phosphorylated MEK” value in assay [5] is listed as “decreased”. Further, the proliferation result in assay [6] and in [10] was “inhibit proliferation” throughout. In addition, the IC50 in assay [7] (Homo sapiens) came out at 136 nM. Moreover, the “inhibition of incorporation of radiolabelled thymidine” value in [7] (range of concentrations) came out at 38±3.67%. The “de novo protein synthesis” value in [8] is given as “inhibit”. The “motility (scratch wound)” value in [9] and in [13] was “inhibit motility” each time. For the same compound, the “rapid phosphorylation of eEF2” value in assay [11] and in assay [14] was “induce rapid phosphorylation” each time. In addition, in assay [12], the growth entry was “did not inhibit”.

The term IC50 denotes the concentration at which inhibition is half-maximal.

The record behind these values is patent US20170172944A1, “METHODS OF TREATING MELANOMA” (Mitchell Woods Pharmaceuticals, Inc., priority 2014, published 2017).
